Legend:
Details in all cases: 72 h
Caco-2 [1] = test: cell viability relative to DMSO; higher = less toxic
Calu-3 [2] = test: as above
HepG2 [3] = test: as above
U2OS [4] = test: as above
Vero E6 [5] = test: as above
Caco-2 [6] = test: relative viability EC50 (midpoint between 100% and the lowest measured viability); higher = less toxic
Calu-3 [7] = test: as above
HepG2 [8] = test: as above
U2OS [9] = test: as above
Vero E6 [10] = test: as above
Caco-2 [11] = test: drug sensitivity score (DSS) for viability; higher = more toxic; extreme values may be limits of the assay
Calu-3 [12] = test: as above
HepG2 [13] = test: as above
U2OS [14] = test: as above
Vero E6 [15] = test: as above

Row | Compound | cell viability (Caco-2 [1]; 1 nM) | cell viability (Caco-2 [1]; 10 nM) | cell viability (Caco-2 [1]; 100 nM) | cell viability (Caco-2 [1]; 1000 nM) | cell viability (Caco-2 [1]; 10000 nM) | cell viability (Calu-3 [2]; 1 nM) | cell viability (Calu-3 [2]; 10 nM) | cell viability (Calu-3 [2]; 100 nM) | cell viability (Calu-3 [2]; 1000 nM) | cell viability (Calu-3 [2]; 10000 nM) | cell viability (HepG2 [3]; 1 nM) | cell viability (HepG2 [3]; 10 nM) | cell viability (HepG2 [3]; 100 nM) | cell viability (HepG2 [3]; 1000 nM) | cell viability (HepG2 [3]; 10000 nM) | cell viability (U2OS [4]; 1 nM) | cell viability (U2OS [4]; 10 nM) | cell viability (U2OS [4]; 100 nM) | cell viability (U2OS [4]; 1000 nM) | cell viability (U2OS [4]; 10000 nM) | cell viability (Vero E6 [5]; 1 nM) | cell viability (Vero E6 [5]; 10 nM) | cell viability (Vero E6 [5]; 100 nM) | cell viability (Vero E6 [5]; 1000 nM) | cell viability (Vero E6 [5]; 10000 nM) | relative viability EC50 (Caco-2 [6]) | relative viability EC50 (Calu-3 [7]) | relative viability EC50 (HepG2 [8]) | relative viability EC50 (U2OS [9]) | relative viability EC50 (Vero E6 [10]) | drug sensitivity score (Caco-2 [11]) | drug sensitivity score (Calu-3 [12]) | drug sensitivity score (HepG2 [13]) | drug sensitivity score (U2OS [14]) | drug sensitivity score (Vero E6 [15])
1 | O[C@@H]1CO[C@H]2[C@@H]1OC[C@@H]2O [isosorbide] | 94.8% | 93.7% | 91.4% | 102% | 99.8% | 97.3% | 97.6% | 106% | 101% | 111% | 93.4% | 92.5% | 106% | 99.6% | 105% | 96.8% | 98.9% | 95% | 98.8% | 94.4% | 96.7% | 100% | 97.5% | 92.9% | 99.8% | > 10 µM | > 10 µM | > 10 µM | > 10 µM | > 10 µM | 0 | 0 | 0 | 0 | 0
2 | c1ccc(CNc2nc(NCc3ccccc3)c3ccccc3n2)cc1 [DBeQ] | 95.7% | 112% | 94.5% | 100% | 28.8% | 105% | 103% | 91.2% | 93.7% | 9% | 104% | 96.1% | 100% | 96.6% | 8.4% | 97.6% | 102% | 97.1% | 90.5% | 8.2% | 99.8% | 98.9% | 95.5% | 94.1% | 19.8% | 3.17 µM | 2.61 µM | 2.89 µM | 2.31 µM | 2.57 µM | 3.9 | 6 | 5.5 | 6.7 | 5.4
3 | CC(=O)N1CCC(C(=O)N(CCCN2CCC(Cc3ccc(C(N)=O)cc3)CC2)c2ccc(C)c(Cl)c2)CC1 [TAK-220] | 85.2% | 95.1% | 93.5% | 102% | 98.3% | 100% | 101% | 98.3% | 101% | 97.9% | 99.9% | 87.2% | 94.1% | 94.5% | 98.6% | 97.3% | 99.3% | 99.4% | 99.9% | 95.3% | 113% | 101% | 106% | 92.4% | 106% | > 10 µM | > 10 µM | > 10 µM | > 10 µM | > 10 µM | 0 | 0 | 0 | 0 | 0
4 | CC(C)(Oc1ccc(C(=O)c2ccc(Cl)cc2)cc1)C(=O)O [fenofibric-acid] | 92.4% | 106% | 91.9% | 96.2% | 105% | 90.5% | 94.5% | 101% | 102% | 98.9% | 91.3% | 96.6% | 90.9% | 94.9% | 90.8% | 103% | 100% | 97.5% | 100% | 95.5% | 102% | 102% | 101% | 95.4% | 97% | > 10 µM | > 10 µM | > 10 µM | > 10 µM | > 10 µM | 0 | 0 | 0 | 0 | 0
5 | O=C(NCc1ccc(F)cc1)N1CCN2C(=O)OC(c3ccccc3)(c3ccccc3)[C@@H]2C1 (racemic) [SHA-68] | 101% | 101% | 89.1% | 93.6% | 85% | 99.7% | 110% | 104% | 100% | 97.2% | 100% | 102% | 98% | 107% | 110% | 101% | 95.6% | 100% | 96.6% | 96.8% | 97.1% | 96.8% | 98.3% | 102% | 100% | > 10 µM | > 10 µM | > 10 µM | > 10 µM | > 10 µM | 0.5 | 0 | 0 | 0 | 0
6 | Cc1cc(-c2cc(O)ccc2Cl)cc2nnc(Nc3ccc(OCCN4CCCC4)cc3)nc12 | 94% | 94.7% | 101% | 82.5% | 0.3% | 100% | 94.8% | 101% | 93.8% | 0.1% | 94.5% | 97.3% | 106% | 96.6% | 0% | 104% | 104% | 106% | 80% | 0% | 97.8% | 100% | 96.3% | 94% | 0% | 1.85 µM | 2.67 µM | 2.92 µM | 1.74 µM | 2.69 µM | 8.4 | 6.5 | 6 | 8.7 | 6.4
7 | O=C(NCC(=O)N1CCCCC1)Nc1ccc2nnsc2c1 [UNC2327] | 95.3% | 102% | 95.4% | 105% | 95.4% | 95% | 97.5% | 90.8% | 103% | 99.3% | 87.1% | 93.7% | 103% | 99.7% | 98.1% | 99.9% | 106% | 96.3% | 99.1% | 99.8% | 97.5% | 103% | 98.7% | 101% | 104% | > 10 µM | > 10 µM | > 10 µM | > 10 µM | > 10 µM | 0 | 0 | 0 | 0 | 0
8 | O=C(Nc1cnc(Cl)nc1)c1ccc(F)c(F)c1 | 101% | 96.7% | 95% | 95.5% | 93.8% | 98.5% | 98.9% | 90.7% | 95.5% | 103% | 96.5% | 96.9% | 97.7% | 96.5% | 93.3% | 102% | 95.1% | 95.6% | 98% | 98.9% | 94.5% | 92.1% | 99.4% | 96.9% | 95.4% | > 10 µM | > 10 µM | > 10 µM | > 10 µM | > 10 µM | 0 | 0 | 0 | 0 | 0
9 | O=C(OOC(=O)c1ccccc1)c1ccccc1 [benzoyl-peroxide] | 102% | 87.9% | 96.6% | 91.2% | 99.4% | 99% | 95.8% | 103% | 99% | 103% | 92.1% | 104% | 99.1% | 110% | 107% | 98% | 95.2% | 99.3% | 97.6% | 94.1% | 95.6% | 98.8% | 92% | 95% | 105% | > 10 µM | > 10 µM | > 10 µM | > 10 µM | > 10 µM | 0 | 0 | 0 | 0 | 0
10 | CCC(C)(Oc1ccc(C2(c3ccc(OC(C)(CC)C(=O)O)cc3)CCCCC2)cc1)C(=O)O (stereo not given) [clinofibrate] | 103% | 98.2% | 99% | 105% | 104% | 96.1% | 93.7% | 99.9% | 102% | 98.9% | 93.9% | 106% | 92.6% | 120% | 108% | 96.9% | 98.3% | 102% | 95.6% | 94.9% | 96.4% | 101% | 96% | 99.2% | 107% | > 10 µM | > 10 µM | > 10 µM | > 10 µM | > 10 µM | 0 | 0 | 0 | 0 | 0
11 | Nc1cccc2c(=O)[nH][nH]c(=O)c12 [monosodium-alpha-luminol] | 93% | 88.6% | 90.3% | 92.7% | 97.7% | 98.5% | 100% | 97.4% | 105% | 105% | 95.9% | 89.7% | 104% | 89.8% | 113% | 98% | 102% | 95.4% | 102% | 103% | 102% | 92.7% | 96.1% | 95.2% | 106% | > 10 µM | > 10 µM | > 10 µM | > 10 µM | > 10 µM | 0 | 0 | 0 | 0 | 0
12 | O=C(O)CNC(=O)c1ccccc1 [hippuric-acid] | 96.9% | 107% | 89.2% | 90% | 92.8% | 99% | 97.6% | 94.3% | 96.6% | 99.9% | 100% | 98.3% | 99.4% | 102% | 95.7% | 100% | 99.3% | 106% | 95.2% | 95.7% | 96% | 98.1% | 97.1% | 94.7% | 100% | > 10 µM | > 10 µM | > 10 µM | > 10 µM | > 10 µM | 0.4 | 0 | 0 | 0 | 0
13 | CCOC(=O)Nc1ccc(NCc2c(C)cc(C)cc2C)cc1N | 101% | 92.6% | 101% | 97.4% | 99% | 110% | 110% | 97.3% | 104% | 96.8% | 99.5% | 95.6% | 96.5% | 92.8% | 100% | 95.9% | 103% | 98.9% | 103% | 93.1% | 99.4% | 96.7% | 90.3% | 93.3% | 99.7% | > 10 µM | > 10 µM | > 10 µM | > 10 µM | > 10 µM | 0 | 0 | 0 | 0 | 0
14 | NC(=O)N1C(=O)/C(=C(\O)c2cccs2)c2cc(Cl)ccc21 [tenidap] | 98.3% | 94.6% | 97.1% | 94% | 91.6% | 109% | 97% | 85.4% | 108% | 99.9% | 98.4% | 110% | 98.8% | 106% | 99.9% | 99.6% | 98.3% | 93.3% | 102% | 99% | 102% | 103% | 94.6% | 93.1% | 99% | > 10 µM | > 10 µM | > 10 µM | > 10 µM | > 10 µM | 0 | 0 | 0 | 0 | 0

From the supplement of paper PMC13380429
